According to US20240279212A1, “NOVEL INTERMEDIATE FOR PREPARATION OF PYROXASULFONE” (UPL LIMITED, priority 2021, published 2024):

Experiments:
[1] = Particle size distribution of Pyroxasulfone prepared in Example 8; type: physicochemical; details: product of Example 8 (H2O2/sodium tungstate oxidation, isopropyl alcohol/water treatment)
[2] = Bulk density of Pyroxasulfone prepared in Example 8; type: physicochemical; details: product of Example 8 (H2O2/sodium tungstate oxidation, isopropyl alcohol/water treatment)

What does the source list for `Cn1nc(C(F)(F)F)c(CS(=O)(=O)C2=NOC(C)(C)C2)c1OC(F)F` [Pyroxasulfone, 3-[5-(difluoromethoxy)-1-methyl-3-(trifluoromethyl)pyrazol-4-ylmethylsulfonyl]-4,5-dihydro-5,5-dimethyl-1,2-oxazole]?
Particle Size Distribution: D50 [1]: 113.30 μm; Bulk density [2]: 0.54 to 0.57 g/mL
